Data taken from patent US20090062326A1, “M3 MUSCARINIC RECEPTOR ANTAGONISTS FOR TREATMENT OF M3 MUSCARINIC RECEPTOR-EXPRESSING TUMORS” (priority 2006, published 2009).
Read-outs that look alike come from different tables or passages of the source.

How the values were obtained:
[1] = test system: SCLC cell line H82; assay: H82 cell proliferation with subtype-selective mAChR antagonists; type: cell-based, human
Procedure: (§1) For in vitro cell proliferation assays, cells were suspended at a concentration of 50,000 cells/ml and pipetted up and down to break up cell clumps. 100 μl cell suspension was added to each well of a 96-well plate. 100 μl darifenacin at concentrations of 2×10^−5, 2×10^−6, 2×10^−7, 2×10^−8, 2×10^−9 M and vehicle control were then added to wells. Every three days, half the volume of the media was changed and at 0, 3, 6, 9 and 12 days, cell number was determined with the Cell-Titer Blue reagent (Promega, Madison Wis.) which measures the production of the fluorescent product of resorufin from resazurin by metabolically active cells.

[2] = test system: H82 cells; assay: H82 SCLC tumor growth in nude mice, subcutaneous minipump; type: in vivo, mouse
Procedure: Mice (NU/NU, Charles River Laboratories) were injected with SCLC tumor cells (NCI-H82 cells, American Type Culture Collection (ATCC); Manassas, Va.), treated with drug and tumor growth monitored. The H82 cells express M3 muscarininc receptor (see Song et al., Cancer Res. 63:214-21, 2003). Nude mice, 5-7 weeks old were housed in a pathogen-free room in microisolators with autoclaved bedding, and fed autoclaved rodent chow and water.
H82 cells were first grown in RPMI-1640+ITS (insulin (5 μg/ml), transferrin (5 μg/ml), sodium selenite (5 ng/ml)). Cells were collected, centrifuged and resuspended in fresh RPMI-1640+ITS at a concentration of 5×10^6 cell/0.25 ml. Cells were then mixed with an equal volume of matrigel (BD Biosciences) to give a final concentration of 5×10^6 cell/0.5 ml and 0.5 ml of this cell suspension was then injected subcutaneously into the right flank of each mouse.
(§2) Tumors were allowed to grow for one week, then drug administration was initiated and continued for the next 4 weeks. Drugs were administered by subcutaneously-implanted osmotic minipumps (Alzet model# 2004). Atropine and darifenacin were dissolved in 50% DMSO/50% phosphate-buffered saline. Atropine was delivered at a dose of 10 mg/kg per day; darifenacin (Novartis Pharma AG, Basel, Switzerland) was delivered at doses of 0.3, 1.0 and 3.0 mg/kg per day. Control animals received minipumps filled with 50% DMSO/50% phosphate-buffered saline.
(§3) Tumor volume was determined weekly by measuring with calipers (volume=height×width×depth). Mice were euthanized after 4 weeks of drug administration. 10 animals were used per group. At sacrifice tumors were removed and weighed. Part of the tumor was fixed for histologic examination of tumor morphology and part was frozen for RNA and protein analyses.

[3] = test system: SCLC cell lines; assay: in vitro cell proliferation assay (Cell-Titer Blue); type: cell-based, human
Procedure: SCLC cell lines (HA-E, SV-E, LV-E, BK-T, HG-E, AD-A, LD-T, H69 (HTB-119), H82 (HTB-175), H146 (HTB 173), H187 (CRL-5804), H524 (CRL-5831), H526 (CRL-5811), H740 (CRL-5840), H841 (CRL-5845), H1048 (CRL-5853), H1105 (CRL-5856), H1417 (CRL-5869), H1694 (CRL-5888). H1836 (CRL-5898), H1876 (CRL-5902), H2029 (CRL-5913), H2195 (CRL-5931), and H2198 (CRL-5933)), were grown in RPMI 1640 medium (Mediatech, Herndon Va.) supplemented with 0-10% fetal bovine serum (Hyclone, Logan, Utah) and ITS (5 μg/ml insulin, 5 μg/ml transferrin, 5 ng/ml sodium selenite (BD Biosciences, San Jose, Calif.)) plus 100 units/ml penicillin, […] streptomycin, and […] amphotericin (Invitrogen, Carlsbad Calif.) at 37° C. in a humidified 5% CO2 atmosphere.
as §1

[4] = overall animal weight of treated nude mice; type: in vivo, mouse; conditions: darifenacin treatment
Procedure: as §2

[5] = plasma darifenacin concentration in nude mice; type: in vivo, mouse; conditions: s.c. minipump; for concentration at 4 weeks: mouse, plasma, sc
Procedure: FIG. 4 is a bar graph showing the relation of nude mouse darifenacin dose to concentration of darifenacin achieved in mouse blood. Dashed lines show concentration of darifenacin obtained in humans treated with 30 mg extended release darifenacin per day.
as §2
Thus significant reduction in SCLC growth can be achieved at clinically relevant doses of M3 mAChR antagonists.

[6] = test system: MAPK phosphorylation; assay: MAPK phosphorylation in tumors removed from treated mice; type: in vivo, mouse; conditions: tumors removed from darifenacin-treated mice
Procedure: as §3
(§4) ACh content of control tumor samples was 420±110 pmol/g which, corresponds to 4×10^−7 M, assuming uniform distribution in the tumor. These levels of ACh are high enough to increase MAPK phosphorylation.

[7] = test system: Akt phosphorylation; assay: Akt phosphorylation in tumors removed from treated mice; type: in vivo, mouse; conditions: tumors removed from darifenacin-treated mice
Procedure: as §3, §4

[8] = test system: H82 SCLC cells; conditions: H82 SCLC cells incubated with nicotine; FIG. 6
Procedure: H82 SCLC cells were incubated with nicotine for the times shown and secretion of ACh into the medium was measured.

[9] = test system: H82 cells; assay: H82 tumors in nude mice receiving nicotine (planned); type: in vivo, mouse; conditions: nicotine 2.0 mg/kg/day by minipump
Procedure: Nude mice are administered H82 cells as described in Example 3. […] Nicotine (nicotine bitartrate, Sigma) is dissolved in water at a concentration to deliver 2.0 mg/kg/day; and will be administered by a second minipump. Tumor volume will be determined weekly as described in the Examples above, and mice euthanized after 4 weeks of drug administration. At sacrifice tumors are removed and weighed. Part of the tumor can be fixed for histologic examination of tumor morphology and part frozen for RNA and protein analyses.

[10] = test system: lung, pancreas and esophagus; conditions: nicotine for 3 weeks vs control mice
Procedure: At the end of 3 weeks, bromodeoxy uridine (BrdU) will be injected ip, 50 mg/kg, then 24 hours later mice will be sacrificed and selected tissues removed to measure cell proliferation. Tissues removed will include lung, pancreas and esophagus, tumors of which are associated with smoking. Tissues will be sectioned and BrdU incorporation into cells determined so as to determine the number of replicating cells per section.

[11] = up to 10^−5 mol/L, nine days of treatment

C[N+]1(C)CCC(OC(=O)C(c2ccccc2)c2ccccc2)CC1.[I-] [4-DAMP, 4-diphenylacetoxy-N-methylpiperidine methiodide]
H82 cell proliferation ([1]; 10^−9 mol/L to 10^−5 mol/L, after nine days): significantly reduced cell proliferation

CCN(CC)CC1CCCCN1CC(=O)N1c2ccccc2C(=O)Nc2cccnc21 (centres unmarked) [AFDX-1116]
H82 cell proliferation [1, 11]: no detectable effect

Cl.O[Si](CCCN1CCCCC1)(c1ccc(F)cc1)C1CCCCC1 (centres unmarked) [P-F-HHSiD, hexahydro-sila-difenidol hydrochloride, p-fluoro analog]
H82 cell proliferation ([1]; 10^−5 mol/L, after nine days): significantly reduced cell proliferation

CN1[C@@H]2CC[C@H]1C[C@@H](OC(=O)C(CO)c1ccccc1)C2 (some centres unmarked) [atropine]
tumor growth (tumor weight) ([2]; 10 mg/kg per day s.c. minipump, weeks 1-5, FIG. 5): do not reduce or inhibit tumor growth

NC(=O)C(c1ccccc1)(c1ccccc1)[C@@H]1CCN(CCc2ccc3c(c2)CCO3)C1 [darifenacin, (S)-2-{1-[2-(2,3-dihydrobenzofuran-5-yl)ethyl]-3-pyr-rolidinyl}-2,2-diphenyl-acetamide]
cell growth in five SCLC cell lines ([3]; 10 μM darifenacin, H187, H1048, H1836, H1876, H520, FIGS. 1A-E): responsive
SCLC cell lines with significantly reduced proliferation ([3]; 20 SCLC cell lines tested): 14 out of 20
proliferation of non-responding cell lines ([3]; cell lines LV-E, AD-A, L-D-T, H69, H1417, H2198): not affected
tumor size (volume by calipers) ([2]; 0.3, 1.0 and 3.0 mg/kg per day s.c. minipump, weeks 1-5, FIG. 2): dosewise-reduction
histology of tumor cells compared to controls ([2]; highest dose of darifenacin): larger in size, with increased-cytoplasm and less nuclear molding
inhibition of tumor size, statistics ([2]; largest dose (3.0 mg/kg per day), FIG. 2): statistically significant
tumor weight ([2]; tumors removed and weighed at end of 5 weeks, FIG. 3): significant decrease
overall animal weight [4]: No significant effects
concentration at 4 weeks ([5]; 3 mg/kg per day, read-out: average plasma darifenacin concentration at which tumor growth was reduced): 9.4 ± 0.3 ng/mL
concentration at 4 weeks ([5]; FIG. 4, read-out: plasma darifenacin concentrations at which inhibition of tumor growth was achieved): 3 to 10 ng/mL
average plasma darifenacin concentration [5]: ~25 nM
average plasma darifenacin concentration at which tumor growth was reduced [5]: 9.4 ± 0.97 ng/mL
levels of MAPK phosphorylation in the tumors [6]: significantly decreased
Akt phosphorylation in the tumors [7]: no significant effects

CN1CCCC1c1cccnc1 (centres unmarked) [nicotine]
acetylcholine secretion into the medium [8]: stimulates acetylcholine secretion
effect of nicotine on tumor growth [9]: grow faster
replicating cells in tissue (BrdU incorporation) [10]: more replicating cells

CN1CCN(CC(=O)N2c3ccccc3C(=O)Nc3cccnc32)CC1 [pirenzepine]
H82 cell proliferation [1, 11]: no detectable effect

O=C(O[C@H]1C[C@H]2CC[C@@H](C1)[N+]21CCCC1)C(O)(c1ccccc1)c1ccccc1 [trospium]
tumor growth ([2]; stated for nonselective antagonists, no dose or test described): do not reduce or inhibit tumor growth
